Experimental data: ChEMBL document CHEMBL4507282, “Data for DCP probe BI-1950” (2021)

Assays:
[1] = tested on: Tyrosine-protein kinase ABL1 (Homo sapiens), P00519 [E255K]; conditions: Compound concentration 1000.0 nM
[2] = molecular target: Activin receptor type-1B (Homo sapiens) (UniProt P36896); conditions: Compound concentration 1000.0 nM
[3] = molecular target: LIM domain kinase 1 (Homo sapiens) (UniProt P53667); conditions: Compound concentration 1000.0 nM
[4] = molecular target: Transient receptor potential cation channel subfamily M member 6 (Homo sapiens) (UniProt Q9BX84); conditions: Compound concentration 1000.0 nM
[5] = molecular target: Mitogen-activated protein kinase 10 (Homo sapiens) (UniProt P53779); conditions: Compound concentration 1000.0 nM
[6] = tested on: Receptor-type tyrosine-protein kinase FLT3 (Homo sapiens), P36888 [D835V]; conditions: Compound concentration 1000.0 nM
[7] = molecular target: Delta-type opioid receptor (Homo sapiens) (UniProt P41143); conditions: Compound concentration 10.0 uM
[8] = molecular target: Myosin-IIIa (Homo sapiens) (UniProt Q8NEV4); conditions: Compound concentration 1000.0 nM
[9] = molecular target: BDNF/NT-3 growth factors receptor (Homo sapiens) (UniProt Q16620); conditions: Compound concentration 1000.0 nM
[10] = molecular target: Muscle, skeletal receptor tyrosine-protein kinase (Homo sapiens) (UniProt O15146); conditions: Compound concentration 1000.0 nM
[11] = molecular target: Mitogen-activated protein kinase 9 (Homo sapiens) (UniProt P45984); conditions: Compound concentration 1000.0 nM
[12] = molecular target: Ephrin type-B receptor 3 (Homo sapiens) (UniProt P54753); conditions: Compound concentration 1000.0 nM
[13] = tested on: Hepatocyte growth factor receptor (Homo sapiens), P08581 [M1250T]; conditions: Compound concentration 1000.0 nM
[14] = molecular target: Cytoplasmic tyrosine-protein kinase BMX (Homo sapiens) (UniProt P51813); conditions: Compound concentration 1000.0 nM
[15] = molecular target: 5'-AMP-activated protein kinase catalytic subunit alpha-1 (Homo sapiens) (UniProt Q13131); conditions: Compound concentration 1000.0 nM
[16] = molecular target: Serine/threonine-protein kinase 25 (Homo sapiens) (UniProt O00506); conditions: Compound concentration 1000.0 nM
[17] = molecular target: Homeodomain-interacting protein kinase 3 (Homo sapiens) (UniProt Q9H422); conditions: Compound concentration 1000.0 nM
[18] = molecular target: 1-phosphatidylinositol 3-phosphate 5-kinase (Homo sapiens) (UniProt Q9Y2I7); conditions: Compound concentration 1000.0 nM
[19] = molecular target: Phosphatidylinositol 4-phosphate 5-kinase type-1 alpha (Homo sapiens) (UniProt Q99755); conditions: Compound concentration 1000.0 nM
[20] = molecular target: Serine/threonine-protein kinase 33 (Homo sapiens) (UniProt Q9BYT3); conditions: Compound concentration 1000.0 nM
[21] = molecular target: Fibroblast growth factor receptor 3 (Homo sapiens) (UniProt P22607); conditions: Compound concentration 1000.0 nM
[22] = molecular target: Interleukin-1 receptor-associated kinase 3 (Homo sapiens) (UniProt Q9Y616); conditions: Compound concentration 1000.0 nM
[23] = molecular target: D(1A) dopamine receptor (Homo sapiens) (UniProt P21728); conditions: Compound concentration 10.0 uM
[24] = molecular target: Cyclin-dependent kinase 4 (Homo sapiens) (UniProt P11802); conditions: Compound concentration 1000.0 nM
[25] = tested on: Epidermal growth factor receptor (Homo sapiens), P00533 [G719S]; conditions: Compound concentration 1000.0 nM
[26] = molecular target: Serine/threonine-protein kinase tousled-like 1 (Homo sapiens) (UniProt Q9UKI8); conditions: Compound concentration 1000.0 nM
[27] = molecular target: Wee1-like protein kinase (Homo sapiens) (UniProt P30291); conditions: Compound concentration 1000.0 nM
[28] = molecular target: Rho-associated protein kinase 2 (Homo sapiens) (UniProt O75116); conditions: Compound concentration 1000.0 nM
[29] = tested on: Tyrosine-protein kinase ABL1 (Homo sapiens), P00519 [F317L]; conditions: Compound concentration 1000.0 nM
[30] = molecular target: Ephrin type-B receptor 4 (Homo sapiens) (UniProt P54760); conditions: Compound concentration 1000.0 nM
[31] = molecular target: Phosphatidylinositol 4-phosphate 5-kinase type-1 gamma (Homo sapiens) (UniProt O60331); conditions: Compound concentration 1000.0 nM
[32] = molecular target: Calcium-dependent protein kinase 1 (Plasmodium falciparum) (UniProt P62344); conditions: Compound concentration 1000.0 nM
[33] = molecular target: Serine/threonine-protein kinase MRCK alpha (Homo sapiens) (UniProt Q5VT25); conditions: Compound concentration 1000.0 nM
[34] = molecular target: Leucine-rich repeat serine/threonine-protein kinase 2 (Homo sapiens) (UniProt Q5S007); conditions: Compound concentration 1000.0 nM
[35] = molecular target: Serine/threonine-protein kinase mTOR (Homo sapiens) (UniProt P42345); conditions: Compound concentration 1000.0 nM
[36] = molecular target: Tyrosine-protein kinase ABL2 (Homo sapiens) (UniProt P42684); conditions: Compound concentration 1000.0 nM
[37] = molecular target: Uncharacterized serine/threonine-protein kinase SBK3 (Homo sapiens) (UniProt P0C264); conditions: Compound concentration 1000.0 nM
[38] = molecular target: Calcium/calmodulin-dependent protein kinase type 1 (Homo sapiens) (UniProt Q14012); conditions: Compound concentration 1000.0 nM
[39] = tested on: Tyrosine-protein kinase ABL1 (Homo sapiens), P00519 [H396P]; conditions: Compound concentration 1000.0 nM
[40] = molecular target: Tyrosine-protein kinase Fes/Fps (Homo sapiens) (UniProt P07332); conditions: Compound concentration 1000.0 nM
[41] = molecular target: Mitogen-activated protein kinase kinase kinase 5 (Homo sapiens) (UniProt Q99683); conditions: Compound concentration 1000.0 nM
[42] = tested on: Tyrosine-protein kinase ABL1 (Homo sapiens), P00519 [M351T]; conditions: Compound concentration 1000.0 nM
[43] = molecular target: Histamine H2 receptor (Homo sapiens) (UniProt P25021); conditions: Compound concentration 10.0 uM
[44] = molecular target: Mitogen-activated protein kinase kinase kinase kinase 2 (Homo sapiens) (UniProt Q12851); conditions: Compound concentration 1000.0 nM
[45] = molecular target: Protein kinase C delta type (Homo sapiens) (UniProt Q05655); conditions: Compound concentration 1000.0 nM

Chain of Leucine-rich repeat serine/threonine-protein kinase 2 (Homo sapiens) (Q5S007 whole entry): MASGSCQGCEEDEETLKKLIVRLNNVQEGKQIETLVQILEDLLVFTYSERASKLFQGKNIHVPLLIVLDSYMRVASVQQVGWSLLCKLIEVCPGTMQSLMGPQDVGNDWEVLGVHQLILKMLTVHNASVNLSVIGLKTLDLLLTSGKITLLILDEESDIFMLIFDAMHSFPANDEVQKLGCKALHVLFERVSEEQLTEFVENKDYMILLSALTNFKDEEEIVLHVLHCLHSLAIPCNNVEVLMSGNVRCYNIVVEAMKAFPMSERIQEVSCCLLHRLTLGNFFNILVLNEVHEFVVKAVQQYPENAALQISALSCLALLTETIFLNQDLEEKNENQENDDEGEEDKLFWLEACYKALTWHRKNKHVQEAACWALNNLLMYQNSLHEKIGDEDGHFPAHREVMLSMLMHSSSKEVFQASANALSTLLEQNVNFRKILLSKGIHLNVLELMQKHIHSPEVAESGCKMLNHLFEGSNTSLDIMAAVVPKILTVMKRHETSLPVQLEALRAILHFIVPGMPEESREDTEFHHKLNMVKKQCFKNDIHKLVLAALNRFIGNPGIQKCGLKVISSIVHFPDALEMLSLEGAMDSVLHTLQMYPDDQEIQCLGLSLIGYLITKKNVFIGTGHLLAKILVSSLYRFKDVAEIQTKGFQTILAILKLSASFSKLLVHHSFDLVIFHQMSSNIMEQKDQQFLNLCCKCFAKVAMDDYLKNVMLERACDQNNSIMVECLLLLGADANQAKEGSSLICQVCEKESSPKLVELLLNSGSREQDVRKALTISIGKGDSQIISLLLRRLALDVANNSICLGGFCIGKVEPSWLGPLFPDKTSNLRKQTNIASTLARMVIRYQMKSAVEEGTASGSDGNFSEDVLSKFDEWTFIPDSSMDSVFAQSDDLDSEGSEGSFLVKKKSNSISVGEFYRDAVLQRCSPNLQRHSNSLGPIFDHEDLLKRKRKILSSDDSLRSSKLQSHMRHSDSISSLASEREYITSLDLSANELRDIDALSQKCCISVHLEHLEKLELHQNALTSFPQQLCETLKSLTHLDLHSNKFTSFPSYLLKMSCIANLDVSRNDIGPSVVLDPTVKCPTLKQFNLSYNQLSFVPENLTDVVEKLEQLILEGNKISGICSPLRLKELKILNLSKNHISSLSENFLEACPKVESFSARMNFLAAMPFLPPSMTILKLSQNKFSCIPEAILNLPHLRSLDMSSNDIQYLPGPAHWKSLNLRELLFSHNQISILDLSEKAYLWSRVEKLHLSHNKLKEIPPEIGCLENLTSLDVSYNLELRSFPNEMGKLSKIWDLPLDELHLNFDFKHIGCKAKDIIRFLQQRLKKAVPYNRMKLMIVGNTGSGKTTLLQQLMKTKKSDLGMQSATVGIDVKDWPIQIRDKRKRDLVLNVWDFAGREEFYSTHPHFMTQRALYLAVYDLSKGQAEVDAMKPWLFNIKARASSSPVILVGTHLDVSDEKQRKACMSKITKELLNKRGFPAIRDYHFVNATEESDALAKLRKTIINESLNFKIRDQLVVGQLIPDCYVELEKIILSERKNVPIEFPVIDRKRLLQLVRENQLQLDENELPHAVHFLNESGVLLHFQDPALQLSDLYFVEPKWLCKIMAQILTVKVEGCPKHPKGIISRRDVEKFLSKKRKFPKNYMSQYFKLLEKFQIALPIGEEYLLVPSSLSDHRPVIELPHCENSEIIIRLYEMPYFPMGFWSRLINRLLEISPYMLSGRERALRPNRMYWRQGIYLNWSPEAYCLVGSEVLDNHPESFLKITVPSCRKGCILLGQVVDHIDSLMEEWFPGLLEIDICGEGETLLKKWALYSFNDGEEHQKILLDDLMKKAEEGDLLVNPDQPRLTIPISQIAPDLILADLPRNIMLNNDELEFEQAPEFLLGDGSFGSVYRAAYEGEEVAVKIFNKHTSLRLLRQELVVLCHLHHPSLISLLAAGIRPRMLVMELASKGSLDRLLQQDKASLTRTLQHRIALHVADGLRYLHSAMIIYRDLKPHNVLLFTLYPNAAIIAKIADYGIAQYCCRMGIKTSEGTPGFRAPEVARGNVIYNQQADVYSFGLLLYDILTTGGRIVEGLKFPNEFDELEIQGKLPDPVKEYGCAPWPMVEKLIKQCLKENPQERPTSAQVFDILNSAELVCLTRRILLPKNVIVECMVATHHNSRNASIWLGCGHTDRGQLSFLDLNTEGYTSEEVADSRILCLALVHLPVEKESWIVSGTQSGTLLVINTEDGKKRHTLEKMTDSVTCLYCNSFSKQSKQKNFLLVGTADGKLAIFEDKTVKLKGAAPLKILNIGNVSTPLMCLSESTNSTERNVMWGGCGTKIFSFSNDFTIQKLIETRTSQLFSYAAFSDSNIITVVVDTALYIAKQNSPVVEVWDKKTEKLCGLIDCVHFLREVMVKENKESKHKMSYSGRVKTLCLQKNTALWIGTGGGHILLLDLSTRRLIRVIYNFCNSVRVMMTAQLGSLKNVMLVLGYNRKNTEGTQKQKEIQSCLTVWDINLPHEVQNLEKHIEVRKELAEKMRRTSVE
Chain of Myosin-IIIa (Homo sapiens) (Q8NEV4 whole entry): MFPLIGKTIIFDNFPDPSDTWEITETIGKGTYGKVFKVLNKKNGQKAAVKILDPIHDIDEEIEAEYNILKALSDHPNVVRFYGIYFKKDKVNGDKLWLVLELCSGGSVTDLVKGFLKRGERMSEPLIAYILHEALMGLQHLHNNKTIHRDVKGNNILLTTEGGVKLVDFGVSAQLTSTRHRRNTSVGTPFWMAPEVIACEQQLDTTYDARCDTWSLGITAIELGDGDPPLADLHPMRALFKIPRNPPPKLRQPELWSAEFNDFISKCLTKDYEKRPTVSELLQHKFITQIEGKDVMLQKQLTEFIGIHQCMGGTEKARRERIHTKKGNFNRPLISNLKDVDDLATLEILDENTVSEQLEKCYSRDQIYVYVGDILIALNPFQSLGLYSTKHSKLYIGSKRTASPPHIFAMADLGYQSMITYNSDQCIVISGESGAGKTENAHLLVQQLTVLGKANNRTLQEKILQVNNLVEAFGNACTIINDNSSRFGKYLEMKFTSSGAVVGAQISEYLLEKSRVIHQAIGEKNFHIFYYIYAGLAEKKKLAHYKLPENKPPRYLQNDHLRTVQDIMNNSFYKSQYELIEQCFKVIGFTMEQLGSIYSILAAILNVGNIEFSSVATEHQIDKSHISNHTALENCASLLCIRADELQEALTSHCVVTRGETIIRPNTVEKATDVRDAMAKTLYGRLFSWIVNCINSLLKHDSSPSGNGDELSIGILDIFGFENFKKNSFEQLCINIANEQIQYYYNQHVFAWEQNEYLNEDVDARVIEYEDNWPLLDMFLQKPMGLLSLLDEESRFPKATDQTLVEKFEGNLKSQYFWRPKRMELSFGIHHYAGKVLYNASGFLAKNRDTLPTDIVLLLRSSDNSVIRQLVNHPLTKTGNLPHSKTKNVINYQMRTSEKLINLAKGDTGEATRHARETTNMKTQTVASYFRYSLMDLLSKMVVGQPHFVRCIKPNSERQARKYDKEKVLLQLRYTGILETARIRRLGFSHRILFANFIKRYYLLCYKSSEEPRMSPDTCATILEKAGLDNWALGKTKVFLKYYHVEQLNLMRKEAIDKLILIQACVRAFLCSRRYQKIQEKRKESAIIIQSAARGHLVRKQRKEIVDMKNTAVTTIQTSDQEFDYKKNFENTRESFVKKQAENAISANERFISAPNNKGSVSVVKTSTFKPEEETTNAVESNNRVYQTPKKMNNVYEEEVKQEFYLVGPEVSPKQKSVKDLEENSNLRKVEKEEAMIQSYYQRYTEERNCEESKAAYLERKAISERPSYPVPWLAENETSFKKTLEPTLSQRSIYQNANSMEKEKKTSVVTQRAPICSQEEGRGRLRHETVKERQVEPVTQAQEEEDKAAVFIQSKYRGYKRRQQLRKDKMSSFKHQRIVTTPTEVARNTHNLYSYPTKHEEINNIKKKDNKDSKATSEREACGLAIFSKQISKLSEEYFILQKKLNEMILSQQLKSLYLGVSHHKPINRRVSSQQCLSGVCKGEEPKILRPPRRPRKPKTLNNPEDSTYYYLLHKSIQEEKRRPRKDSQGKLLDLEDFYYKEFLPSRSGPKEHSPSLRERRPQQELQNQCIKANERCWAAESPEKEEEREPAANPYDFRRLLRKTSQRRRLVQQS
Chain of Uncharacterized serine/threonine-protein kinase SBK3 (Homo sapiens) (P0C264 whole entry): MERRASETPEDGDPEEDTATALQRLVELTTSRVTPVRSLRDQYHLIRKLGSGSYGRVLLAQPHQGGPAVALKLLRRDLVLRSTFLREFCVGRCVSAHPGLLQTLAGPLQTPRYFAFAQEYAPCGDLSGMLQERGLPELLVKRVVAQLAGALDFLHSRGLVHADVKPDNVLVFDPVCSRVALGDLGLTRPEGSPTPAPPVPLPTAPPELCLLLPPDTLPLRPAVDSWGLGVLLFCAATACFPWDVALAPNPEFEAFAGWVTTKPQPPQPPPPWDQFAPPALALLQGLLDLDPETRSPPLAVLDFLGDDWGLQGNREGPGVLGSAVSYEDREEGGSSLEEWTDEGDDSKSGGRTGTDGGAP
Chain of Histamine H2 receptor (Homo sapiens) (P25021 whole entry): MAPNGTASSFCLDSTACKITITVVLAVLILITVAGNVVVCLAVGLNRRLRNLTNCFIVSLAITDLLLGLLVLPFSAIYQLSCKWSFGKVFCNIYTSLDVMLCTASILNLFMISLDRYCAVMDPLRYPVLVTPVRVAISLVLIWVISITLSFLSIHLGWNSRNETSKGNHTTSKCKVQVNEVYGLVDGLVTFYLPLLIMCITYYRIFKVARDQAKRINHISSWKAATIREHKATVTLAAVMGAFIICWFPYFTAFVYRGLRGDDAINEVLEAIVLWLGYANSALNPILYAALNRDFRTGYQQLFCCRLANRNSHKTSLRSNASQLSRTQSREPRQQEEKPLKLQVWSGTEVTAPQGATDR

C[C@H](NC(=O)c1cnc2n1[C@](C)(Cc1ccc(C#N)cc1)C(=O)N2c1cc(Cl)c(F)c(Cl)c1)C(=O)NC1(c2ccccn2)CC1 [BI 1950]
residual activity [1]: 93%
residual activity [2]: 99%
residual activity [3]: 100%
residual activity [4]: 100%
residual activity [5]: 91%
residual activity [6]: 100%
inhibition [7]: -0.33%
residual activity [8]: 100%
residual activity [9]: 100%
residual activity [10]: 100%
residual activity [11]: 92%
residual activity [12]: 100%
residual activity [13]: 100%
residual activity [14]: 77%
residual activity [15]: 100%
residual activity [16]: 100%
residual activity [17]: 100%
residual activity [18]: 100%
residual activity [19]: 100%
residual activity [20]: 88%
residual activity [21]: 100%
residual activity [22]: 100%
inhibition [23]: 1.26%
residual activity [24]: 100%
residual activity [25]: 100%
residual activity [26]: 100%
residual activity [27]: 100%
residual activity [28]: 100%
residual activity [29]: 98%
residual activity [30]: 100%
residual activity [31]: 80%
residual activity [32]: 100%
residual activity [33]: 100%
residual activity [34]: 100%
residual activity [35]: 96%
residual activity [36]: 83%
residual activity [37]: 100%
residual activity [38]: 96%
residual activity [39]: 91%
residual activity [40]: 100%
residual activity [41]: 92%
residual activity [42]: 100%
inhibition [43]: 11.8%
residual activity [44]: 100%
residual activity [45]: 100%

C[C@@]1(Cc2ccc(C#N)cc2)C(=O)N(c2cc(Cl)cc(Cl)c2)c2ncc(C(=O)NC3(c4nc(C5CCC5)no4)CC3)n21 [BI 9446]
residual activity [1]: 95%
residual activity [2]: 100%
residual activity [3]: 90%
residual activity [4]: 0%
residual activity [5]: 100%
residual activity [6]: 100%
inhibition [7]: 8.3%
residual activity [8]: 100%
residual activity [9]: 100%
residual activity [10]: 100%
residual activity [11]: 100%
residual activity [12]: 99%
residual activity [13]: 100%
residual activity [14]: 40%
residual activity [15]: 100%
residual activity [16]: 100%
residual activity [17]: 100%
residual activity [18]: 100%
residual activity [19]: 100%
residual activity [20]: 100%
residual activity [21]: 100%
residual activity [22]: 100%
inhibition [23]: 18.6%
residual activity [24]: 100%
residual activity [25]: 99%
residual activity [26]: 100%
residual activity [27]: 100%
residual activity [28]: 100%
residual activity [29]: 100%
residual activity [30]: 100%
residual activity [31]: 100%
residual activity [32]: 100%
residual activity [33]: 100%
residual activity [34]: 93%
residual activity [35]: 91%
residual activity [36]: 78%
residual activity [37]: 100%
residual activity [38]: 93%
residual activity [39]: 96%
residual activity [40]: 100%
residual activity [41]: 100%
residual activity [42]: 100%
inhibition [43]: 11%
residual activity [44]: 100%
residual activity [45]: 100%
